One may read the IC50 as the midpoint of a concentration-inhibition curve.

Data set [1] concerns BTK Activity in RAMOS B Cells. Kind of data set: Assay to determine BTK activity in RAMOS B cells (anti-IgM, FLIPR Calcium 6). The format is cell-based. As to conditions: Homo sapiens, Ramos, EC80 anti-IgM, FLIPR calcium read. The procedure, abridged: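 Ramos B cells were loaded with Calcium 6 dye containing 5 mM probenecid (2 h at 37 °C, then 15 min at 25 °C) and exposed to compound for 60 min at 25 °C. Anti-IgM was then added from a 4×EC80 stock, and calcium flux was recorded by FLIPR for 160 s; IC50 was derived.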

Data set [2] has as its target T1, BTK (Homo sapiens, UniProt Q06187). Put plainly: Assay to determine BTK inactivation rate in human whole blood (ELISA of unoccupied BTK). The class given is cell-based. As to conditions: 37° C., 5, 15, 30, 60 minutes; for kinact/KI: read-out: BTK hWB Kinact/Ki. Further details: Human whole blood is obtained from StemExpress; tissue StemExpress; host or cells: human whole blood. The procedure:
Human Whole Blood Compound Treatment and Lysis
Human whole blood is obtained from StemExpress and kept at ambient temperature until the time of the experiment. […] This is prepared fresh each experimental day. […] Compounds are reconstituted to stocks of 10 mM and are diluted in two-fold serial dilutions to generate an 8-point curve in DMSO, with the last point being DMSO only, creating a 100× dilution series. A working 10× dilution series is created using 1.0 μL of the prepared DMSO titration, 100×, into […] 1×PBS in order to keep the DMSO constant. The human whole blood is added in the volume of 225 μL per well in a new 96w v-bottom plate, where one column of eight wells is sufficient for testing one compound. For compound treatment, 25 μL of 10× dilution series in PBS is added to the 225 μL whole blood, followed by briefly pipetting up and down twice. The plates are covered with lids and incubated at 37° C. for 5, 15, 30, 60 minutes. At each timepoint, 30 μL of treated blood is pulled from each column and added to preloaded collection plates that contain 30 μL of supplemented lysis buffer and mixed briefly. The collected and lysed samples shake on rotator for 60 minutes at room temperature. These samples are used fresh for detection via ELISA, and remaining sample is frozen at −80° C. if a repeat is necessary.
ELISA: Determining Amount of Unoccupied BTK
All streptavidin pre-coated plates (R&D Systems, #CP004) are brought to room temperature while samples are lysing. Assay Buffer 1, 1×PBS+0.05% Tween 20+1% BSA is prepared and stored at 4° C. when not in use. Using this Assay Buffer, assay buffer+1× protease/phosphatase inhibitor cocktail (PICs) is prepared in the amount needed for all samples. Assay Buffer+PICs in the volume of 90 μL/well is added to the ELISA plate. Lysed blood sample (10 μL) is added to the ELISA plate. BTK recombinant protein dilutions are prepared in assay buffer+PICS for use as a μM). The standard is loaded into the ELISA plate at 100 μL/well, in duplicate. These samples and standards remain in the plate, sealed, overnight at 4° C. The following day, the plate is washed four times with 1× Wash Buffer (1×PBS+0.05% Tween 20) using a plate washer. The plate is inverted to expel all fluid each time and blotted on clean paper towels to remove remaining liquid. Assay Buffer 2 is prepared (1×PBS+0.05% Tween 20+0.05% BSA) and kept at 4° C. when not in use. […] Diluted a-BTK antibody is added at 100 μl/well. The plate is covered with adhesive film and incubated for 90 minutes at room temperature. The plate is washed four times with 1× Wash Buffer (1×PBS+0.05% Tween 20) using a plate washer. The plate is inverted to expel all fluid each time and blotted on clean paper towels to remove remaining liquid. […] The diluted antibody is added at 100 μl/well. The plate is covered with adhesive film and incubated for one hour at room temperature. The plate is washed four times with 1× Wash Buffer using a plate washer. The plate is inverted to expel all fluid each time and blotted on clean paper towels to remove remaining liquid. […] The plate is incubated at room temperature in the dark for −5-10 minutes. The reaction is stopped by adding 50 μl/well 2N sulfuric acid (H2SO4) (R&D Systems, #DY994). The plate is read in a plate reader at the wavelengths […] and 570 nm (correction wavelength). Using Graphpad Prism, an XY table+graph is created, listing 0-60 minutes as X axis and concentration as Y axis. A One Phase Decay model fit is applied to the data. Checking Results table, the K values are obtained and new XY table+graph are created. Concentration is assigned to the X axis and K values from first analysis are entered. The Michaelis-Menten equation is applied to the data.
In general terms: An ELISA detects its analyte on a solid surface through an enzyme-linked reagent.

The target in data set [3] is T1, BTK. Put plainly: Assay to determine activity against BTK (EZ reader, FLPeptide). The format is biochemical. Further details: purchased Carna. As to conditions: ATP (1 mM), BTK (2 nM), room temperature for 90 minutes. The procedure, abridged: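 Human BTK (2 nM) phosphorylated FLPeptide (1.5 uM) with 1 mM ATP in 50 mM HEPES pH7.5, 10 mM MgCl2, 2 mM DTT, 1 mM EGTA, 0.01% Brij-35, 0.05% BSA; 11-point 3-fold compound dilutions. After 90 min at room temperature, EDTA stop; conversion ratio read on EZ reader, IC50 from curve fit with free top and bottom.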

The nature of data set [4]: Plasma and total brain concentrations at 1 h post a single oral administration to female C57BL/6 mice. The class given is in vivo. As to conditions: mouse, 1 h post single oral 10 mg/kg, LC-MS/MS, read-out: Brain:plasma ratio. The procedure: Determination of Plasma and Total Brain Concentrations at 1 h Post a Single Oral Administration of Test Compound to Female C57BL/6 Mice
The appropriate amount of test article was dissolved 10% dimethylacetamide (DMA)/90% (20% hydroxypropyl-b-cyclodextrin (HP-β-CD) w/v in water to obtain a final concentration of 1 mg/mL for oral dosing. Sonication, vortex, and homogenization was used as needed. Three female C57BL/6 mice aged 7-9 weeks (20-30 grams) were dosed by oral gavage 10 mg/kg solution of the test article.
Concentrations of representative test compounds in the plasma and brain samples (using plasma and brain homogenate standard curve for all samples appropriately) were analyzed using LC-MS/MS. With respect to the brain:plasma ratio, Table 11 lists the results as follows: • “A” denotes a ratio >0.5; • “B” denotes a ratio between 0.1 and 0.5; and • “C” denotes a ratio <0.1.

Molecules are shown by their SMILES.

T1 sequence (Q06187 whole entry): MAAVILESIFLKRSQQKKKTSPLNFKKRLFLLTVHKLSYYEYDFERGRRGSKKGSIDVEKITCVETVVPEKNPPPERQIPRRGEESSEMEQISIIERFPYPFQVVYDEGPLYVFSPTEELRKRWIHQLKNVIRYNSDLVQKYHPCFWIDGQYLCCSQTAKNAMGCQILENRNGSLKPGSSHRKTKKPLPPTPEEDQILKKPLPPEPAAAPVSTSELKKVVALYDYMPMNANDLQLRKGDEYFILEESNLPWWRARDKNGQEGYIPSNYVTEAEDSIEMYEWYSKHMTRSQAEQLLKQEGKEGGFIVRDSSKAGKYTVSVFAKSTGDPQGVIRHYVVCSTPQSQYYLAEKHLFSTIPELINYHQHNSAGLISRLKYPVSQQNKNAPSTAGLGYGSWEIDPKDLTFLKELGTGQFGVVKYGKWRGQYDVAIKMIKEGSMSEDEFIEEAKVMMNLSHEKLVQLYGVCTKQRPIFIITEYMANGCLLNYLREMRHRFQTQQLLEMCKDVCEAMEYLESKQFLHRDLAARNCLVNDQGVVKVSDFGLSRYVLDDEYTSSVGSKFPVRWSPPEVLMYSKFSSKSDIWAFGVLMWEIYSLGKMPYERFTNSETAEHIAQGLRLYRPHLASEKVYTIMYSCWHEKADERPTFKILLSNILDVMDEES

In the case of `C=CC(=O)N1CCC2CCN(c3c(F)cc(C(N)=O)c4[nH]c(C)c(C)c34)CC21` (single isomer, unassigned) [Compound 32a, 4-(1-acryloyloctahydro-6H-pyrrolo[2,3-c]pyridin-6-yl)-5-fluoro-2,3-dimethyl-1H-indole-7-carboxamide], the IC50 (in data set [1]; at BTK [3]) was 10 to 100 nM in each case. The “BTK hWB Kinact/Ki” value at BTK [2] is “A (a Kinact/Ki >10×10^−4 nM^−1 min^−1)”.
`CC#CC(=O)N1CCC[C@H]1c1nc(-c2ccc(C(=O)Nc3ccccn3)cc2)c2c(N)nccn12` [Acalabrutinib, reference compound]: the kinact/KI on BTK [2] is less than 1670 M⁻¹ s⁻¹. The Kp at 1 h in data set [4] is less than 0.1.
`CC#CC(=O)N[C@H]1CCCN(c2c(F)cc(C(N)=O)c3[nH]c(C)c(C)c23)C1` [Branebrutinib, reference compound]: the kinact/KI on BTK [2] is more than 16700 M⁻¹ s⁻¹. In addition, the Kp at 1 h in data set [4] is less than 0.1.
In the case of `C=CC(=O)N1CCC[C@H](c2c(F)cc(C(N)=O)c3[nH]c(C)c(Cl)c23)C1` [Compound 2b, (R)-4-(1-acryloylpiperidin-3-yl)-3-chloro-5-fluoro-2-methyl-1H-indole-7-carboxamide], the IC50 (in data set [1]; at BTK [3]) was 10 to 100 nM throughout. Further, the kinact/KI at BTK [2] was 1670 to 16700 M⁻¹ s⁻¹.
With `C=CC(=O)N1CCC=C(c2c(F)c(F)c(C(N)=O)c3[nH]c(C)c(Cl)c23)C1` [Compound 4, 4-(1-acryloyl-1,2,5,6-tetrahydropyridin-3-yl)-3-chloro-5,6-difluoro-2-methyl-1H-indole-7-carboxamide], the concentration for half-maximal inhibition (IC50) (in data set [1]; on BTK [3]) was less than 10 nM throughout. On BTK [2], the kinact/KI was more than 16700 M⁻¹ s⁻¹.
Take `C=CC(=O)N1CCC[C@H](c2c(F)c(F)c(C(N)=O)c3[nH]c(C)c(Cl)c23)C1` [Compound 15, (R)-4-(1-acryloylpiperidin-3-yl)-3-chloro-5,6-difluoro-2-methyl-1H-indole-7-carboxamide]: the IC50 (in data set [1]; against BTK [3]) was 10 to 100 nM in each case. The kinact/KI on BTK [2] was more than 16700 M⁻¹ s⁻¹.
Regarding `C=CC(=O)N1CCc2c(cccc2-c2c(F)cc(C(N)=O)c3[nH]c(C)c(Cl)c23)C1` [Compound 20a, 4-(2-acryloyl-1,2,3,4-tetrahydroisoquinolin-5-yl)-3-chloro-5-fluoro-2-methyl-1H-indole-7-carboxamide], the IC50 (in data set [1]; at BTK [3]) was less than 10 nM throughout. Also, on BTK [2], the kinact/KI was less than 1670 M⁻¹ s⁻¹.
Take `CC#CC(=O)N[C@H]1C[C@H](F)CN(c2c(F)cc(C(N)=O)c3[nH]c(C)c(Cl)c23)C1` [Compound 28, 4-((3S,5S)-3-(but-2-ynamido)-5-fluoropiperidin-1-yl)-3-chloro-5-fluoro-2-methyl-1H-indole-7-carboxamide]: the IC50 (in data set [1]; at BTK [3]) was less than 10 nM throughout. For the same molecule, the kinact/KI on BTK [2] was in the range of 1670 to 16700 M⁻¹ s⁻¹.
With `C=CC(=O)N1CCC2CCN(c3c(F)cc(C(N)=O)c4[nH]c(C)c(C)c34)CC21` (stereo not shown) [Compound 32, 4-(1-acryloyloctahydro-6H-pyrrolo[2,3-c]pyridin-6-yl)-5-fluoro-2,3-dimethyl-1H-indole-7-carboxamide], the IC50 (in data set [1]; against BTK [3]) was 10 to 100 nM each time. The kinact/KI on BTK [2] was less than 1670 M⁻¹ s⁻¹.
For the molecule `C=CC(=O)N[C@H]1C[C@H](F)CN(c2c(F)cc(C(N)=O)c3[nH]c(C)c(C)c23)C1` [Compound 36, 4-((3S,5S)-3-acrylamido-5-fluoropiperidin-1-yl)-5-fluoro-2,3-dimethyl-1H-indole-7-carboxamide], the IC50 (in data set [1]; against BTK [3]) was less than 10 nM each time. Further, the kinact/KI on BTK [2] was more than 16700 M⁻¹ s⁻¹.
With `C=CC(=O)N[C@H]1C[C@H](O)CN(c2c(F)cc(C(N)=O)c3[nH]c(C)c(C)c23)C1` [Compound 38, 4-((3S,5S)-3-acrylamido-5-hydroxypiperidin-1-yl)-5-fluoro-2,3-dimethyl-1H-indole-7-carboxamide], the IC50 (in data set [1]; at BTK [3]) was 10 to 100 nM each time.
As to `C=CC(=O)N1CCC[C@@H](n2nc(-c3ccc(Oc4ccccc4)cc3)c3c(N)ncnc32)C1` [Ibrutinib, reference compound], the Kp at 1 h in data set [4] is less than 0.1.
